This note sets out measurements from patent publication US9505798B2, “Steroid compounds as RORyt modulators and uses thereof” (New York University, priority 2010, dated 2016).

The subject of data set [1] is human embryonic kidney 293t cell lines. The data set can be described thus: Toxicity on human embryonic kidney 293T cells. The following applies: human. As for the experimental part:
The following representative compounds are tested for their RORγt inhibitory activity and toxicity.

Data set [2] deals with mouse Th17 cell differentiation. The experiment in a line: In vitro mouse naive CD4+ T cell polarization. In kind it is cell-based. The protocol: Naive CD25^− CD62L^+CD44^low/int cells were sorted from RORγt^fl/fl mice and transduced with control-IRES-GFP (WT) or CRE-IRES-GFP (KO) retrovirus. […] FACS-sorted naive T cells were transduced with retroviral vectors encoding murine RORα-IRES-GFP or RORγt-IRES-GFP on Day 1 (16 h after TCR stimulation) and GFP expressing cells were gated for analysis on Day 5. […] Lymphocytes were isolated on day 21 after disease induction. The cells were stimulated for 4 h with PMA/Ionomycin and stained for surface markers and intracellular cytokines.
T cells were purified from lymph nodes and spleens of six to eight weeks old B6 mice (Taconic), by magnetically depleting B220^+ cells (autoMACS, Miltenyi), and then sorting CD8^−DAPI^−CD19^−CD4^+CD25^−CD62L^+CD44^low/Int naive T cells on a FACSAria (BD). […] For T cell polarization, 200 μl cells were seeded at 0.4×10^5 cells per mL in 96-well plates pre-coated with anti-CD3ε (5 μg/mL) and anti-CD28 (10 μg/mL). Cells were cultured for 4-5 days in Th17 (TGF-β (0.3 ng/mL), IL-6 (20 ng/mL), and anti-IFN-γ and anti-IL-4 (2 ng/mL)), Th1 (IL-12 (10 ng/mL), IL-2 (10 U/mL) and anti-IL-4 (2 ng/mL)), or Th2 (IL-4 (10 ng/mL), and anti-P35 and anti-IFN-γ 2 ng/mL)) conditions. For ectopic expression ROR proteins, native CD4^+ T cells were infected with retroviral MIGr-control, MIGr-RORα or MIGr-RORγ 24 hrs after activation, and cultured without exogenous cytokines or only with IL-6. At day 1, compounds dissolved in DMSO were added. For cytokine analysis, cells were incubated for 5 hours with phorbol 12-myristate 13-acetate (50 ng/mL; Sigma), ionomycin (500 ng/mL; Sigma) and GolgiStop (BD). Intracellular cytokine staining was performed according to the manufacturer's protocol (Cytofix/Cytoperm buffer set from BD) with alexa647-conjugated anti-IL-17a (eBioscience), and PE-conjugated anti-IFN-γ or anti-IL-4 (eBioscience). An LSR II (BD Biosciences) and FlowJo software (Tree Star) were used for flow cytometry and analysis. Dead cells were excluded using the Live/Dead fixable aqua dead cell stain kit (Invitrogen).
Complementary DNAs (cDNAs) were synthesized from TRIzol (Invitrogen) isolated RNA, using M-MLV Reverse Transcriptase (Promega). Real-time RT-PCR was performed with SYBRgreen master mix (Roche) and the Roche real-time PCR system (Roche480). Gene specific values were normalized to Actb for each sample.

Data set [3] concerns aryl hydrocarbon receptor (AHR). The experiment in a line: AHR ligand FICZ effect on RORα-dependent IL-17a expression. The settings on record: FICZ added. The format is cell-based, mouse.
Data set [4] relates to gut (large intestine) Th17 cells. The data set can be described thus: DSS-induced model relating to intestinal bowel diseases. Details: dose or concentration left out as unconfirmed. The format is in vivo, mouse. The settings on record: IP daily, day 7. As for the experimental part: Th17 cells were induced by Dextran Sulfate Sodium (DSS) treatment, a chemical agent that causes intestinal epithelial injury, and thus, is often used to generate an animal model that mimics many aspects of intestinal bowel diseases. […] Gut associated mononuclear cells were collected and their cytokine expression was analyzed on day 7. Representative FACS plots (gated on CD4^+CD3^+TCRβ^+CD19^− cells) from each group are shown (left).
B6 wild-type mice received 2% DSS (Dextran Sulfate Sodium) ad libitum in drinking water for 7 days. […] Gut associated cells were collected and activated for cytokine straining on day 7. To isolate cells from the small intestinal lamina propria, Peyer's patches, fat and mesenterium were removed before opening the intestine longitudinally. The tissue was cut into 2 cm pieces and washed in calcium- and magnesium-free PBS (Gibco). The tissue was then washed for 10 minutes in cold 1 mM DTT (Sigma) in PBS then two 10 minute washes in 30 mM EDTA, 10 mM HEPES (Gibco) in PBS at 37° C. The tissue was washed with complete RPMI and digested for 1.5 hr at 37° C. in 5% CO2, humidified atmosphere, in complete RPMI containing 100 U ml-1 type VIII collagenase (Sigma) and 150 μg ml—1 DNaseI (Sigma). After digestion, cells were eluted from the tissue by shaking. Live cells were isolated using a Percoll (Pharmacia) gradient. […]

For data set [5], the system named is IL-17a production in human CD4+ T cells. The data set can be described thus: Human cord blood CD4+ T cells expressing murine ATP1a1, Th17 conditions. In kind it is cell-based. The settings on record: murine Na+/K+-ATPase α1 expressed, 10 μM. As for the experimental part:
Blood samples were obtained from the New York Blood Center. Mononuclear cells were prepared from buffy coats from healthy adult donors or from cord blood, using FicollPAQUE gradients. CD4^+ T cells were magnetically selected (autoMACS, Miltenyi). Adult memory CD4+ T cell subsets were further purified as CD3^+CD4^+CD25^−CD45RO^+CCR6^+CD161^+ by cell sorting on a FACSAria (BD). Naive CD4^+ T cells were isolated from cord blood as CD3^+CD4^+CD45RA^+HLA^−DR^−CD25^−DAPI^−. Memory cells were activated with anti-CD3/CD28 coated beads (1 bead/cell) in T cell media (see above) supplemented with 100 U/mL IL-2 (Peprotech), 10 ng/mL IL-1β and 10 ng/mL IL-23 (eBioscience). Naive cells were activated with anti-CD3/CD28 beads and cultured with the same cytokines, and TGF-β (0, 0.1, 1, or, 10 ng/mL) (Peprotech), in XVIVO-20 (Lonza) media. […] Naive CD4+ T cells, cultured in XVIVO-20 media supplemented with 100 U/mL IL-2 (Peprotech), were transduced with RORαd-IRES-GFP or RORγt-IRES-GFP on day 1 and analyzed on day 6. GFP expressing cells were gated for analysis. DMSO or compounds were added 6-8 hours after the viral transduction.

In data set [6] the test system is pre-differentiated mouse Th17 cells. The data set can be described thus: Pre-differentiated mouse Th17 cells from MOG-immunized mice, in vitro. In kind it is cell-based. The settings on record: expanded Th17 cells from immunized mice, 10 μM. The text has this:
Mononuclear cells were collected from draining lymph nodes of wild-type or IL-23RGFP knock-in heterozygous mice 7 days after MOG(35-55)/CFA injection.

For data set [7], the target named is T1, RORγt binding to Il17a/f and Il23r loci (Mus musculus, UniProt P51450).
T1 construct: endogenous in cells; host or cells: mouse Th17-polarized CD4+ T cells
T1 sequence (P51450 1-495 isoform P51450-2): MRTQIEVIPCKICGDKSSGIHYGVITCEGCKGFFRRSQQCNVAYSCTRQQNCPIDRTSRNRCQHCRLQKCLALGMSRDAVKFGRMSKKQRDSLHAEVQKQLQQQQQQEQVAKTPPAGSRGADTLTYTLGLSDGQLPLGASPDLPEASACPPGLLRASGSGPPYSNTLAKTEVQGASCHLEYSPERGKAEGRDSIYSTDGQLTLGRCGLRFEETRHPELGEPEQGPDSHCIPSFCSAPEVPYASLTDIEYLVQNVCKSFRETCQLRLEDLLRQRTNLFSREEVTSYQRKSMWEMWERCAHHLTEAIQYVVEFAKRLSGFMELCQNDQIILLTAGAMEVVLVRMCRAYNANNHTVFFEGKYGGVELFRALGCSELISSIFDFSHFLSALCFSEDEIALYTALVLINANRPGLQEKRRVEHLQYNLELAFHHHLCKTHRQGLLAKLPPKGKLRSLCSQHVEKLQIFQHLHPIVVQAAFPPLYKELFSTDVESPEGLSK
The experiment in a line: Chromatin immunoprecipitation of RORγt at target loci in Th17-polarized cells. The settings on record: 10 and 20 μM, ChIP. The format is cell-based.

Regarding `CC1O[C@@H](OC2C(C)O[C@H](OC3C(C)O[C@@H](O[C@H]4CC[C@@]5(C)[C@H](CC[C@@H]6[C@@H]5C[C@@H](O)[C@]5(C)[C@@H](C(CO)CCO)CC[C@]65O)C4)C[C@H]3O)C[C@H]2O)C[C@@H](O)C1O` (stereo partly shown) [Compound 13, 20,22-Dihydrodigoxin-21,23-diol], the “cytotoxic concentration on human cells” value in data set [1] is > 40 µM.
`C[C@H]1O[C@@H](O[C@H]2[C@@H](O)C[C@H](O[C@H]3[C@@H](O)C[C@H](O[C@H]4CC[C@@]5(C)[C@H](CC[C@@H]6[C@@H]5C[C@@H](O)[C@]5(C)[C@@H](C7=CC(=O)OC7)CC[C@]65O)C4)O[C@@H]3C)O[C@@H]2C)C[C@H](O)[C@@H]1O` [Digoxin]: the “differentiation of naive CD4+ T cells into Th1, Th2 and regulatory T cells” value in data set [2] is on record as “no effect”. For the same compound, in data set [2] (Th17 conditions), the “induction of RORγt mRNA and protein expression” value is reported as “not affected”. Besides, the “transcriptional up-regulation of IL-23 receptor (IL-23R) gene” value in data set [2] (Th17 polarizing conditions) is given as “strongly inhibited”. Also, the “expression of IL-17a mRNA and protein” value in data set [2] (Th17 polarizing conditions, 10 μM) is “markedly reduced”. Moreover, the AHR activity entry in data set [3] is listed as “unaffected”. For the same compound, the “number of gut (large intestine) Th17 cells” value in data set [4] is listed as “reduction”. The IL-17a expression entry in data set [5] was “suppressed IL-17a production without affecting IFN-γ expression”. Also, the “IL-23R and IL-17a expression” value in data set [6] was “inhibited both IL-23R (FIG. 4a) and IL-17a (FIG. 4b, bottom) expression without affecting IFN-γ expression”. Also, the “RORγt binding to sites in Il17a/f and Il23r” value in data set [7] is recorded as “substantially reduced”.
